Test results: ChEMBL document CHEMBL1949642 (Bioorg Med Chem Lett, 2012)

Key:
[1] = target: C-C chemokine receptor type 5 (Homo sapiens, UniProt P51681); experiment: Displacement of [125I]MIP-1alpha from human recombinant CCR5 expressed in CHO cells; type: cell-based
[2] = Intrinsic clearance in human liver microsomes
[3] = Lipophilicity, log D of the compound at pH 7.4; settings: buffer
[4] = target: Voltage-gated inwardly rectifying potassium channel KCNH2 (Homo sapiens, UniProt Q12809); experiment: Displacement of 3,7-Bis[2-(4-nitro[3,5-3H]phenyl)ethyl]-3,7-diazabicyclo[3.3.1]nonane from human ERG expressed in HEK cells after 3 hrs
[5] = Clearance in rat at 1 to 2 mg/kg, iv; type: ADME, organism-based; parameters: dose 1-2 mg/kg, route intravenous; settings: in vivo
[6] = Volume of distribution at steady state in rat at 1 to 2 mg/kg, iv; type: ADME, organism-based; parameters: dose 1-2 mg/kg, route intravenous; settings: in vivo, read-out: Vdss
[7] = Half life in rat at 1 to 2 mg/kg, iv; type: ADME, organism-based; parameters: dose 1-2 mg/kg, route intravenous; settings: in vivo
[8] = Oral bioavailability in rat at 2 to 5 mg/kg; type: ADME, organism-based; settings: in vivo
[9] = Clearance in male dog at 1 to 2 mg/kg, iv; type: ADME, organism-based, Canis lupus familiaris; parameters: dose 1-2 mg/kg, route intravenous; settings: in vivo
[10] = Volume of distribution at steady state in male dog at 1 to 2 mg/kg, iv; type: ADME, organism-based, Canis lupus familiaris; parameters: dose 1-2 mg/kg, route intravenous; settings: in vivo, read-out: Vdss
[11] = Half life in male dog at 1 to 2 mg/kg, iv; type: ADME, organism-based, Canis lupus familiaris; parameters: dose 1-2 mg/kg, route intravenous; settings: in vivo
[12] = Oral bioavailability in male dog at 2 to 5 mg/kg; type: ADME, organism-based, Canis lupus familiaris; settings: in vivo
[13] = Clearance in female dog at 1 to 2 mg/kg, iv; type: ADME, organism-based, Canis lupus familiaris; parameters: dose 1-2 mg/kg, route intravenous; settings: in vivo
[14] = Volume of distribution at steady state in female dog at 1 to 2 mg/kg, iv; type: ADME, organism-based, Canis lupus familiaris; parameters: dose 1-2 mg/kg, route intravenous; settings: in vivo, read-out: Vdss
[15] = Half life in female dog at 1 to 2 mg/kg, iv; type: ADME, organism-based, Canis lupus familiaris; parameters: dose 1-2 mg/kg, route intravenous; settings: in vivo
[16] = Oral bioavailability in female dog at 2 to 5 mg/kg; type: ADME, organism-based, Canis lupus familiaris; settings: in vivo

Voltage-gated inwardly rectifying potassium channel KCNH2, sequence (Q12809 whole entry): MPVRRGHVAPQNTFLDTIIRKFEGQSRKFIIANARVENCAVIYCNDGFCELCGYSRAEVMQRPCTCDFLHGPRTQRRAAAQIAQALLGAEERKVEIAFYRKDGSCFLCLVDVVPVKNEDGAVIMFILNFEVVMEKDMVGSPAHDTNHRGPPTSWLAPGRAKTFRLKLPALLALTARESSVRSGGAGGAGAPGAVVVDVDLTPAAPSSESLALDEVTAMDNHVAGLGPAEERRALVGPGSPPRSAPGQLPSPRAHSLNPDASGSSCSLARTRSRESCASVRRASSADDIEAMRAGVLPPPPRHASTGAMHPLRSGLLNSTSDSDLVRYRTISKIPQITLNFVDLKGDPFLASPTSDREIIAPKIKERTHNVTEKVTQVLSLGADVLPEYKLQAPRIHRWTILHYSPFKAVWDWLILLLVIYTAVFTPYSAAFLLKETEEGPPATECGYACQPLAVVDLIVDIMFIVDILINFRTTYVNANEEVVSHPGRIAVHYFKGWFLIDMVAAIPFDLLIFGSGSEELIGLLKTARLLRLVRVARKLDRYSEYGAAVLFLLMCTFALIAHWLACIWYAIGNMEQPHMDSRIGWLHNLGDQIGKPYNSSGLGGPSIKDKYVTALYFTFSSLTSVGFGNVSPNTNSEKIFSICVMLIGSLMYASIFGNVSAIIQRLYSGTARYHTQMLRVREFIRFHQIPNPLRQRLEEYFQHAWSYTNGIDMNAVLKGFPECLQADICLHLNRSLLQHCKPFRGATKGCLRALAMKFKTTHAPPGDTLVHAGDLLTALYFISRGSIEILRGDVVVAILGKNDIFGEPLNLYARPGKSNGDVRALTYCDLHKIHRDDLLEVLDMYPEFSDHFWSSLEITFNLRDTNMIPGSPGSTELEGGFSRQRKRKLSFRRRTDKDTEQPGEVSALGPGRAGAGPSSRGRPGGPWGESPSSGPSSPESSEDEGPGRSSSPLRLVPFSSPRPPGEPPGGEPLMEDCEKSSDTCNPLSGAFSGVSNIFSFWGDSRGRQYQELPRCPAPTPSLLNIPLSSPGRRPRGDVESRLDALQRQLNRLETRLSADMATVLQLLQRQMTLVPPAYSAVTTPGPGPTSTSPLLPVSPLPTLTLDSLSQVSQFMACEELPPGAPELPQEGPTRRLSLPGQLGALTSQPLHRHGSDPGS
C-C chemokine receptor type 5, sequence (P51681 whole entry): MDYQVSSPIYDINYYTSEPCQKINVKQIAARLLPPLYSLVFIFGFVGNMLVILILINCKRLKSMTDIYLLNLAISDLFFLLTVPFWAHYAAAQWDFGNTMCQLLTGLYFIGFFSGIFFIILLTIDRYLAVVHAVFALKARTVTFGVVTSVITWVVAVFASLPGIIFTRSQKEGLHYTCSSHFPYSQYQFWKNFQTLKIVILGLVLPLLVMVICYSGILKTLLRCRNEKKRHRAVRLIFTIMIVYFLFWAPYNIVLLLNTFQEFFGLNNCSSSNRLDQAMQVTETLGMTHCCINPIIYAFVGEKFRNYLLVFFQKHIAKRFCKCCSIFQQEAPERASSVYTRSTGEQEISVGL

Row | Compound | IC50 [1] [nM] | microsomal CLint ([2]; liver microsomes) [µL/min/mg] | logD [3] | IC50 [4] [µM] | also measured
1 | CCN(C(=O)Cc1ccc(S(C)(=O)=O)cc1)C1CCN(CCC(c2ccccc2)C2CCN(S(=O)(=O)CC(F)(F)F)CC2)CC1 (stereo not given) | 5.4 | 28 | 2.2 | – | –
2 | CCN(C(=O)Cc1ccc(S(C)(=O)=O)cc1)C1CCN(CC[C@@H](c2ccccc2)N2CCN(S(=O)(=O)C(F)(F)F)CC2)CC1 | 1.6 | 33 | – | 3.2 | –
3 | CCN(C(=O)Cc1ccc(S(C)(=O)=O)cc1)C1CCN(CC[C@@H](c2ccccc2)N2CCN(S(=O)(=O)CC(F)(F)F)CC2)CC1 | 8.9 | 47 | 1.8 | 5.8 | –
4 | CCN(C(=O)Cc1ccc(S(C)(=O)=O)cc1)C1CCN(CC[C@@H](c2ccccc2)C2CCN(S(C)(=O)=O)CC2)CC1 | 1.1 | 31 | 1.1 | 25 | –
5 | CCN(C(=O)Cc1ccc(S(C)(=O)=O)cc1)C1CCN(CC[C@@H](c2ccccc2)C2CCN(S(=O)(=O)C(F)(F)F)CC2)CC1 | < 0.1 | 28 | 3.4 | 1.2 | –
6 | CCN(C(=O)Cc1ccc(S(C)(=O)=O)cc1)C1CCN(CC[C@@H](c2cc(F)cc(F)c2)N2CCN(S(C)(=O)=O)CC2)CC1 | 3.7 | – | 1.2 | > 32 | microsomal CLint ([2]; microsomes): 8 µL/min/mg; clearance [5]: 71 mL/min/kg; Vd [6]: 7.7 L/kg; half-life [7]: 144 min; bioavailability [8]: 7.3%; clearance [9]: 12 mL/min/kg; Vd [10]: 3.2 L/kg; half-life [11]: 498 min; bioavailability [12]: 15%; clearance [13]: 7.5 mL/min/kg; Vd [14]: 2.2 L/kg; half-life [15]: 282 min; bioavailability [16]: 22%
7 | CCN(C(=O)Cc1ccc(S(C)(=O)=O)cc1)C1CCN(CC[C@@H](c2cccc(S(C)(=O)=O)c2)C2CCN(S(C)(=O)=O)CC2)CC1 | 794 | – | 0.6 | – | –
8 | CCN(C(=O)Cc1ccc(S(C)(=O)=O)cc1)C1CCN(CC[C@@H](c2cccc(OC)c2)C2CCN(S(C)(=O)=O)CC2)CC1 | 5 | 45 | 1.2 | 32 | –
9 | CCN(C(=O)Cc1ccc(S(C)(=O)=O)cc1)C1CCN(CC[C@@H](c2cccc(F)c2)C2CCN(S(C)(=O)=O)CC2)CC1 | – | 18 | – | – | –
10 | CCN(C(=O)Cc1ccc(S(C)(=O)=O)cc1)C1CCN(CC[C@@H](c2cccc(C)c2)C2CCN(S(C)(=O)=O)CC2)CC1 | 0.44 | 104 | 1.5 | – | –
11 | CCN(C(=O)Cc1ccc(S(C)(=O)=O)cc1)C1CCN(CC[C@@H](c2cc(F)cc(Cl)c2)C2CCN(S(C)(=O)=O)CC2)CC1 | – | 22 | 1.6 | – | –
12 | CCN(C(=O)Cc1ccc(S(C)(=O)=O)cc1)C1CCN(CC[C@@H](c2cc(C)cc(C)c2)C2CCN(S(C)(=O)=O)CC2)CC1 | < 0.1 | > 150 | 1.9 | – | –
13 | CCN(C(=O)Cc1ccc(S(C)(=O)=O)cc1)C1CCN(CC[C@@H](c2cccc(Cl)c2)C2CCN(S(C)(=O)=O)CC2)CC1 | 0.55 | 32 | 1.8 | 7.9 | –
14 | CCN(C(=O)Cc1ccc(S(C)(=O)=O)cc1)C1CCN(CC[C@@H](c2cccc(C(F)(F)F)c2)C2CCN(S(C)(=O)=O)CC2)CC1 | 3.5 | 17 | 1.9 | 7.9 | –
15 | CCN(C(=O)Cc1ccc(S(C)(=O)=O)cc1)C1CCN(CC[C@@H](c2cc(Cl)cc(Cl)c2)C2CCN(S(C)(=O)=O)CC2)CC1 | < 0.1 | – | 2.6 | 6.5 | –
